Earlier results on one compound are cited in patent US20220073443A1, “CANNABINOID FORMULATIONS AND METHODS OF MAKING SAME” (BOTANECO INC., priority 2018, published 2022).

Molecules are shown by their SMILES.

The conditions of this data set: consumed by smoking marihuana; average.

`CCCCCc1cc(O)c2c(c1)OC(C)(C)[C@@H]1CCC(C)=C[C@@H]21` [Δ^9-THC, Δ^9-tetrahydrocannabinol]: the “bioavailability of pulmonary-delivered Δ9-THC” value is about 30%.
